According to US12071425B2 (Genentech, Inc., priority 2018, dated 2024):
Counter-ions that a name gives are not always drawn.

target: kinase domain of IRE1 alpha (His-tagged kinase dead construct KR, AA G547-L977, D688N) (Homo sapiens (Human), UniProt O75460, D688N); assay: IRE1α TR-FRET competition binding assay; conditions: competition with Kinase Tracer 236, 0.1 μM; one hour at room temperature
In short: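 Compound displacement of an ATP-site fluorescent tracer (0.1 μM final) measured by TR-FRET after 1 h at room temperature. Protein, a His-tagged D688N kinase/RNase construct from Sf9 cells (0.006 μM final), was pre-bound 1 h at 4° C to Eu anti-His antibody (0.002 μM) in pH 7.5 HEPES buffer.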

kinase domain of IRE1 alpha (His-tagged kinase dead construct KR, AA G547-L977, D688N), sequence (O75460 547-977 D688N): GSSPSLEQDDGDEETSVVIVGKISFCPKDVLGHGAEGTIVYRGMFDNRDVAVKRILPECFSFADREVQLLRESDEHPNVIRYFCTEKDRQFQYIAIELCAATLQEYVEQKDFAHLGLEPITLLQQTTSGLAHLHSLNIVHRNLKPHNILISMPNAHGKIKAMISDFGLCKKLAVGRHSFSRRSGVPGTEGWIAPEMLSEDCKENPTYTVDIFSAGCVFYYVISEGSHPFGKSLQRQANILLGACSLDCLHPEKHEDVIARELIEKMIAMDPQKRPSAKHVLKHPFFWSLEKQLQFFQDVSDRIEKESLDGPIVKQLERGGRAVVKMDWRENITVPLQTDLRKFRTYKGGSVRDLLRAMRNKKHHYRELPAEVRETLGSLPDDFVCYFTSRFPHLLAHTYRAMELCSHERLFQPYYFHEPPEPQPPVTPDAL

Row | IC50 [nM] | SMILES
1 | 4.1 | N[C@H]1CC[C@H](Nc2nccc(-c3cccnc3Oc3ccc(NS(=O)(=O)Cc4ccccc4)c(F)c3F)n2)CC1 [Compound 169, N-(4-((3-(2-(((1r,4r)-4-Aminocyclohexyl)amino)pyrimidin-4-yl)pyridin-2-yl)oxy)-2,3-difluorophenyl)-1-phenylmethanesulfonamide]
2 | 11 | CN1CCC[C@H](Nc2nccc(-c3cccnc3Oc3ccc(NS(=O)(=O)Cc4ccccc4)c(F)c3F)n2)C1 [Compound 170, (S)-N-(2,3-difluoro-4-((3-(2-((1-methylpiperidin-3-yl)amino)pyrimidin-4-yl)pyridin-2-yl)oxy)phenyl)-1-phenylmethanesulfonamide]
3 | 180 | NCCNc1nccc(-c2cccnc2Oc2ccc(NS(=O)(=O)Cc3ccccc3)c(F)c2F)n1 [Compound 171, N-(4-((3-(2-((2-aminoethyl)amino)pyrimidin-4-yl)pyridin-2-yl)oxy)-2,3-difluorophenyl)-1-phenylmethanesulfonamide]
4 | 42 | CNCCNc1nccc(-c2cccnc2Oc2ccc(NS(=O)(=O)Cc3ccccc3)c(F)c2F)n1 [Compound 172, N-(2,3-difluoro-4-((3-(2-(2-(methylamino)ethylamino)pyrimidin-4-yl)-2-pyridyl)oxy)phenyl)-1-phenyl-methanesulfonamide]
5 | 8.3 | O=S(=O)(CC1CCC1)Nc1ccc(Oc2ncccc2-c2ccnc(N[C@H]3CCCNC3)n2)c(F)c1F [Compound 173, (S)-1-cyclobutyl-N-(2,3-difluoro-4-((3-(2-(piperidin-3-ylamino)pyrimidin-4-yl)pyridin-2-yl)oxy)phenyl)methanesulfonamide]
6 | 3.1 | C[C@@]1(F)CNC[C@@H](Nc2nccc(-c3cccnc3Oc3ccc(NS(=O)(=O)Cc4ccccc4)c(F)c3F)n2)C1 [Compound 174, N-(2,3-difluoro-4-((3-(2-(((3S,5S)-5-fluoro-5-methylpiperidin-3-yl)amino)pyrimidin-4-yl)pyridin-2-yl)oxy)phenyl)-1-phenylmethanesulfonamide]
7 | 5.2 | Cc1c(Oc2ncccc2-c2ccnc(N[C@H]3CCCNC3)n2)cc(F)c(NS(=O)(=O)Cc2ccccc2)c1C [Compound 175, (S)-N-(6-fluoro-2,3-dimethyl-4-((3-(2-(piperidin-3-ylamino)pyrimidin-4-yl)pyridin-2-yl)oxy)phenyl)-1-phenylmethanesulfonamide]
8 | 2.5 | O=S(=O)(Cc1ccccc1)Nc1c(F)cc(Oc2ncccc2-c2ccnc(N[C@@H]3CNC[C@@H](F)C3)n2)c(F)c1F [Compound 176, 1-Phenyl-N-(2,3,6-trifluoro-4-((3-(2-(((3S,5S)-5-fluoropiperidin-3-yl)amino)pyrimidin-4-yl)pyridin-2-yl)oxy)phenyl)methanesulfonamide]
9 | 4.9 | Cc1cc(NS(=O)(=O)Cc2ccccc2)c(F)c(F)c1Oc1ncccc1-c1ccnc(N[C@@H]2CNC[C@H](C)C2)n1 [Compound 177, N-(2,3-difluoro-5-methyl-4-((3-(2-(((3S,5R)-5-methyl-3-piperidyl)amino)pyrimidin-4-yl)-2-pyridyl)oxy)phenyl)-1-phenyl-methanesulfonamide]
10 | 3.5 | Cc1cc(NS(=O)(=O)Cc2ccccc2)c(F)c(F)c1Oc1ncccc1-c1ccnc(N[C@@H]2CNC[C@@H](F)C2)n1 [Compound 178, N-(2,3-difluoro-4-((3-(2-(((3S,5S)-5-fluoro-3-piperidyl)amino)pyrimidin-4-yl)-2-pyridyl)oxy)-5-methyl-phenyl)-1-phenyl-methanesulfonamide]
11 | 4.3 | Cc1c(Oc2ncccc2-c2ccnc(N[C@@H]3CNC[C@@H](F)C3)n2)cc(F)c(NS(=O)(=O)Cc2ccccc2)c1F [Compound 179, N-(2,6-difluoro-4-((3-(2-(((3S,5S)-5-fluoro-3-piperidyl)amino)pyrimidin-4-yl)-2-pyridyl)oxy)-3-methyl-phenyl)-1-phenyl-methanesulfonamide]
12 | 38 | O=S(=O)(Cc1ccccc1)Nc1ccc(Oc2ncccc2-c2ccnc(NC3CCNCC3)n2)c(F)c1F [Compound 180, N-(2,3-difluoro-4-((3-(2-(4-piperidylamino)pyrimidin-4-yl)-2-pyridyl)oxy)phenyl)-1-phenyl-methanesulfonamide]
13 | 36 | O=C1CC[C@H](Nc2nccc(-c3cccnc3Oc3ccc(NS(=O)(=O)Cc4ccccc4)c(F)c3F)n2)CN1 [Compound 181, (S)-N-(2,3-difluoro-4-((3-(2-((6-oxopiperidin-3-yl)amino)pyrimidin-4-yl)pyridin-2-yl)oxy)phenyl)-1-phenylmethanesulfonamide]
14 | 9.5 | O=S(=O)(Cc1ccccc1)Nc1ccc(Oc2ncccc2-c2ccnc(N[C@H]3CC[C@H](O)CC3)n2)c(F)c1F [Compound 182, N-(2,3-difluoro-4-((3-(2-(((1r,4r)-4-hydroxycyclohexyl)amino)pyrimidin-4-yl)pyridin-2-yl)oxy)phenyl)-1-phenylmethanesulfonamide]
15 | 8.5 | O=S(=O)(Cc1ccccc1)Nc1ccc(Oc2ncccc2-c2ccnc(N[C@@H]3CNCC(F)(F)C3)n2)c(F)c1F [Compound 183, (S)-N-(4-((3-(2-((5,5-difluoropiperidin-3-yl)amino)pyrimidin-4-yl)pyridin-2-yl)oxy)-2,3-difluorophenyl)-1-phenylmethanesulfonamide]
16 | 57 | CN(C)CCNc1nccc(-c2cccnc2Oc2ccc(NS(=O)(=O)Cc3ccccc3)c(F)c2F)n1 [Compound 184, N-(4-((3-(2-((2-(dimethylamino)ethyl)amino)pyrimidin-4-yl)pyridin-2-yl)oxy)-2,3-difluorophenyl)-1-phenylmethanesulfonamide]
17 | 2.9 | N#Cc1ccccc1CS(=O)(=O)Nc1ccc(Oc2ncccc2-c2ccnc(N[C@H]3CCCNC3)n2)c(F)c1F [Compound 187, (S)-1-(2-cyanophenyl)-N-(2,3-difluoro-4-((3-(2-(piperidin-3-ylamino)pyrimidin-4-yl)pyridin-2-yl)oxy)phenyl)methanesulfonamide]
18 | 11 | O=S(=O)(CC1(F)CC1)Nc1ccc(Oc2ncccc2-c2ccnc(N[C@H]3CCCNC3)n2)c(F)c1F [Compound 188, (S)-N-(2,3-difluoro-4-((3-(2-(piperidin-3-ylamino)pyrimidin-4-yl)pyridin-2-yl)oxy)phenyl)-1-(1-fluorocyclopropyl)methanesulfonamide]
19 | 5 | CCC(F)(F)CS(=O)(=O)Nc1c(F)cc(Oc2ncccc2-c2ccnc(N[C@@H]3CNC[C@@H](F)C3)n2)c(F)c1F [Compound 189, 2.2-difluoro-N-(2,3,6-trifluoro-4-((3-(2-(((3S,5S)-5-fluoro-3-piperidyl)amino)pyrimidin-4-yl)-2-pyridyl)oxy)phenyl)butane-1-sulfonamide]
20 | 4.7 | C[C@@]1(F)CNC[C@@H](Nc2nccc(-c3cccnc3Oc3cc(F)c(NS(=O)(=O)Cc4ccccc4)c(F)c3F)n2)C1 [Compound 190, 1-Phenyl-N-(2,3,6-trifluoro-4-((3-(2-(((3S,5S)-5-fluoro-5-methyl-3-piperidyl)amino)pyrimidin-4-yl)-2-pyridyl)oxy)phenyl)methanesulfonamide]
21 | 4.3 | N#Cc1ccc(CS(=O)(=O)Nc2c(F)cc(Oc3ncccc3-c3ccnc(N[C@@H]4CNC[C@@H](F)C4)n3)c(F)c2F)cc1 [Compound 191, 1-(4-cyanophenyl)-N-(2,3,6-trifluoro-4-((3-(2-(((3S,5S)-5-fluoropiperidin-3-yl)amino)pyrimidin-4-yl)pyridin-2-yl)oxy)phenyl)methanesulfonamide]
22 | 9.7 | O=S(=O)(CC1CCC1(F)F)Nc1ccc(Oc2ncccc2-c2ccnc(N[C@H]3CCCNC3)n2)c(F)c1F (stereo partly drawn) [Compound 192, N-(2,3-difluoro-4-((3-(2-(((S)-piperidin-3-yl)amino)pyrimidin-4-yl)pyridin-2-yl)oxy)phenyl)-1-(2,2-difluorocyclobutyl)methanesulfonamide hydrochloride]
23 | 33 | O=S(=O)(Cc1ccccc1)Nc1c(F)cc(Oc2ncccc2-c2ccnc(N[C@H]3CNC[C@H](F)C3)n2)c(F)c1F [Compound 193, 1-phenyl-N-(2,3,6-trifluoro-4-((3-(2-(((3R,5R)-5-fluoro-3-piperidyl)amino)pyrimidin-4-yl)-2-pyridyl)oxy)phenyl)methanesulfonamide]
24 | 4 | CCC(F)(F)CS(=O)(=O)Nc1c(F)cc(Oc2ncccc2-c2ccnc(N[C@H]3CCCNC3)n2)c(F)c1F [Compound 194, (S)-2,2-difluoro-N-(2,3,6-trifluoro-4-((3-(2-(piperidin-3-ylamino)pyrimidin-4-yl)pyridin-2-yl)oxy)phenyl)butane-1-sulfonamide]
25 | 4.6 | Cc1cc(CS(=O)(=O)Nc2c(F)cc(Oc3ncccc3-c3ccnc(N[C@H]4CCCNC4)n3)c(F)c2F)no1 [Compound 195, (S)-1-(5-methylisoxazol-3-yl)-N-(2,3,6-trifluoro-4-((3-(2-(piperidin-3-ylamino)pyrimidin-4-yl)pyridin-2-yl)oxy)phenyl)methanesulfonamide]
26 | 2.5 | O=S(=O)(Cc1ccc(C(F)(F)F)nc1)Nc1c(F)cc(Oc2ncccc2-c2ccnc(N[C@H]3CCCNC3)n2)c(F)c1F [Compound 196, (S)-N-(2,3,6-trifluoro-4-((3-(2-(piperidin-3-ylamino)pyrimidin-4-yl)pyridin-2-yl)oxy)phenyl)-1-(6-(trifluoromethyl)pyridin-3-yl)methanesulfonamide]
27 | 490 | O=C(NCc1cccc(Oc2ncccc2-c2ccnc(N[C@H]3CCCNC3)n2)c1F)C1CC1 [Compound 197, (S)—N-(2-Fluoro-3-((3-(2-(piperidin-3-ylamino)pyrimidin-4-yl)pyridin-2-yl)oxy)benzyl)cyclopropanecarboxamide]
28 | 4.4 | C[C@@]1(F)CNC[C@@H](Nc2nccc(-c3cccnc3Oc3cc(F)c(NS(=O)(=O)CC4CCC4)c(F)c3F)n2)C1 [Compound 202, 1-cyclobutyl-N-(2,3,6-trifluoro-4-((3-(2-(((3S,5S)-5-fluoro-5-methylpiperidin-3-yl)amino)pyrimidin-4-yl)pyridin-2-yl)oxy)phenyl)methanesulfonamide]
